This note sets out measurements from US12570639B2, “Tetrahydroquinoline derivative and medicinal use thereof” (Toray Industries, Inc., priority 2020, dated 2026).

In the first experiment the test system is Human fibrosarcoma cells (HT-1080 cells). Kind of experiment: In vitro inhibitory action against ferroptosis (Erastin-induced cell death, Cell Counting Kit-8). Type of experiment: cell-based. To be noted: evaluation concentration 10 μmol/L, Erastin 3 μmol/L, 24 hours. How it is done: The inhibitory action against ferroptosis of the tetrahydroquinoline derivative (I) or a pharmaceutically acceptable salt thereof was evaluated with Human fibrosarcoma cells (HT-1080 cells), by using, as an index, the inhibitory action against the cell death induced by treatment with a ferroptosis inducer, Erastin.
HT-1080 cells (ATCC) were cultured in a mixture (hereinafter referred to as vehicle) composed of DMEM/F12 (Thermo Fisher Scientific, Inc.), a final concentration of 10% fetal bovine serum (Thermo Fisher Scientific, Inc.), and a final concentration of 1% penicillin-streptomycin solution (Nacalai Tesque, Inc.). Cells were seeded into 96-well plates (Corning Inc.) at 5×10^4 cells/well and cultured overnight.
A test compound was dissolved in DMSO, and the resulting solution was diluted in the vehicle to a final concentration of 1% DMSO and then used. […] Thirty minutes after the addition of the test compound, Erastin (Cayman Chemical Co.) diluted in the vehicle at a final concentration of 3 μmol/L was added to wells. The wells added with the test compound and Erastin were grouped as “test compound,” and the wells added with no test compound and no Erastin were grouped as “background,” and the wells added with no test compound but with Erastin were grouped as “control.” Twenty-four hours after the addition of Erastin, 5 μL of Cell Counting Kit-8 (Dojindo Laboratories) was added to each well and incubated for 4 hours, and the absorbance at 450 nm was then measured for each well (N=2). […] Ferroptosis inhibition rate (%)=[1−{(Average absorbance value at 450 nm measured when a test compound is added)−(Average absorbance value at 450 nm measured in the background)}/{(Average absorbance value at 450 nm measured in the control)−(Average absorbance value at 450 nm measured in the background)}]×100 Equation 1
For orientation: Tetrazolium dyes change colour on reduction, which living cells bring about.
Take `Cc1ccc2c(c1)CCC(c1ccc(C(N)=O)cc1)N2` (stereo not shown) [Example 111, 4-(6-methyl-1,2,3,4-tetrahydroquinolin-2-yl)benzamide]: the “Ferroptosis inhibition rate (%)” value was determined as 98.91%.

On to `Cc1ccc2c(c1)CCC(c1ccc(C(N)=O)cc1)N2` (stereo not shown) [Example 110, 4-(6-methyl-1,2,3,4-tetra-hydroquinolin-2-yl)benzamide], for which the “Ferroptosis inhibition rate (%)” value amounted to 103.0%.

The experiment is the same for the next values; noted with them: evaluation concentration 25 μmol/L, Erastin 3 μmol/L, 24 hours.
With `CC(C)(C)CC(=O)Nc1ccc2c(c1)CCC(c1ccccc1)N2` (stereo not shown) [Example 78, 3,3-dimethyl-N-(2-phenyl-1,2,3,4-tetrahydroquinolin-6-yl)butanamide], the “Ferroptosis inhibition rate (%)” value is 88.56%.

Staying with this experiment, now noted: evaluation concentration 30 μmol/L, Erastin 3 μmol/L, 24 hours.
Consider `Cc1ccc2c(c1)CCC(c1cscn1)N2` (stereo not shown) [Example 103, 4-(6-methyl-1,2,3,4-tetrahydroquinolin-2-yl)thiazole], for which the “Ferroptosis inhibition rate (%)” value is on record as 76.76%. The same measure, in the same setting: under `O=C(c1ccc(C2CCc3ccccc3N2)cc1)N1CCOCC1` (stereo not shown) [Example 42, morpholino(4-(1,2,3,4-tetrahydroquinolin-2-yl)phenyl)methanone] stands 98.89%; under `CCN(CC)C(=O)c1ccc(C2CCc3ccccc3N2)cc1` (stereo not shown) [Example 39, N,N-diethyl-4-(1,2,3,4-tetrahydroquinolin-2-yl)benzamide], 101.5%.

In the case of `CC(C)c1ccc2c(c1)CCC(c1ccccc1)N2` (stereo not shown) [Example 54, 6-isopropyl-2-phenyl-1,2,3,4-tetrahydroquinoline], the “Ferroptosis inhibition rate (%)” value was determined as 109.9%. With `COC(=O)CC1(c2ccccc2)CCc2ccccc2N1` (stereo not shown) [Example 94, 2-(2-phenyl-1,2,3,4-tetrahydroquinolin-2-yl)methyl acetate], the “Ferroptosis inhibition rate (%)” value is given as 93.68%. For the molecule `Clc1ccc2c(c1)CCC(c1cn[nH]c1)N2` (stereo not shown) [Example 96, 6-chloro-2-(1H-pyrazol-4-yl)-1,2,3,4-tetrahydroquinoline], the “Ferroptosis inhibition rate (%)” value is 98.01%. For `O=C1CCc2cc(C3CCc4ccccc4N3)ccc2N1` (stereo not shown) [Example 126, 1,2,3,3′,4,4′-hexahydro-[2,6′-biquinolin]-2′(1′H)-one], the “Ferroptosis inhibition rate (%)” value was found to be 97.29%. Still for that read-out and setting: under `OC1(c2ccc3c(c2)CCC(c2ccccc2)N3)COC1` (stereo not shown) [Example 71, 3-(2-phenyl-1,2,3,4-tetrahydroquinolin-6-yl)oxetan-3-ol] stands 108.9%; under `O=C1Cc2cc(C3CCc4cc(Cl)ccc4N3)ccc2N1` (stereo not shown) [Example 95, 5-(6-chloro-2,3,4,4-tetrahydroquinolin-2-yl)indolin-2-one], 68.84%. The same measure, in the same setting: for `CC(C)(C)C(=O)Nc1ccc2c(c1)CCC(c1ccccc1)N2` (stereo not shown) [Example 74, N-(2-phenyl-1,2,3,4-tetrahydroquinolin-6-yl)pivalamide] the value was 85.08%. On the same count and under the same terms, for `Fc1cccc2c1NC(c1ccccc1)CC2` (stereo not shown) [Example 80, 8-fluoro-2-phenyl-1,2,3,4-tetrahydroquinoline] the value was 103.9%; for `CC(C)(C)NC(=O)Nc1ccc2c(c1)CCC(c1ccccc1)N2` (stereo not shown) [Example 128, 1-(tert-butyl)-3-(2-phenyl-1,2,3,4-tetrahydroquinolin-6-yl)urea], 91.83%; for `COc1ccc(C2CCc3ccccc3N2)cn1` (stereo not shown) [Example 15, 2-(6-methoxypyridin-3-yl)-1,2,3,4-tetrahydroquinoline], 89.22%. For the molecule `NS(=O)(=O)c1cccc(C2CCc3ccccc3N2)c1` (stereo not shown) [Example 19, 3-(1,2,3,4-tetrahydroquinolin-2-yl)benzenesulfonamide], the “Ferroptosis inhibition rate (%)” value was found to be 100.5%. On to `Clc1cccc2c1NC(c1ccccc1)CC2` (stereo not shown) [Example 79, 8-chloro-2-phenyl-1,2,3,4-tetrahydroquinoline], for which the “Ferroptosis inhibition rate (%)” value stood at 104.4%. Consider `CCNC(=O)c1ccc(C2CCc3ccccc3N2)cc1` (stereo not shown) [Example 40, N-ethyl-4-(1,2,3,4-tetrahydroquinolin-2-yl)benzamide], for which the “Ferroptosis inhibition rate (%)” value came out at 111.1%.

Consider `C[C@@H]1C[C@H](c2ccccc2)Nc2ccccc21` (relative stereo) [Example 90, (2R*,4R*)-4-methyl-2-phenyl-1,2,3,4-tetrahydroquinoline], for which the “Ferroptosis inhibition rate (%)” value was found to be 102.4%.

Regarding `Cc1ccc2c(c1)CCC(c1ccc(S(N)(=O)=O)cc1)N2` (stereo not shown) [Example 100, 4-(6-methyl-1,2,3,4-tetrahydroquinolin-2-yl)benzenesulfonamide], the “Ferroptosis inhibition rate (%)” value came to 103.5%.

As to `Clc1ccc2c(c1)NCC(c1ccccc1)C2` (stereo not shown) [Example 164, 7-chloro-3-phenyl-1,2,3,4-tetrahydroquinoline], the “Ferroptosis inhibition rate (%)” value turned out to be 72.33%.

As for `NS(=O)(=O)c1ccc(C2CNc3ccccc3C2)cc1` (stereo not shown) [Example 167, 4-(1,2,3,4-tetrahydroquinolin-3-yl)benzenesulfonamide], the “Ferroptosis inhibition rate (%)” value is listed as 76.82%. Regarding `NC(=O)c1cccc(C2CCc3ccccc3N2)c1` (stereo not shown) [Example 46, 3-(1,2,3,4-tetrahydroquinolin-2-yl)benzamide], the “Ferroptosis inhibition rate (%)” value is on record as 109.0%. On the same count and under the same terms, for `O=C1NCc2cc(C3CCc4ccccc4N3)ccc21` (stereo not shown) [Example 123, 5-(1,2,3,4-tetrahydroquinolin-2-yl)isoindolin-1-one] the value was 113.4%. Take `OCc1ccccc1C1CCc2ccccc2N1` (stereo not shown) [Example 47, (2-(1,2,3,4-tetrahydroquinolin-2-yl)phenyl)methanol]: the “Ferroptosis inhibition rate (%)” value is on record as 85.21%.

Consider `O=C(Cc1ccc2c(c1)CCC(c1ccccc1)N2)N1CCCC1` (stereo not shown) [Example 156, 2-(2-phenyl-1,2,3,4-tetrahydroquinolin-6-yl)-1-(pyrrolidin-1-yl)ethan-1-one], for which the “Ferroptosis inhibition rate (%)” value was 57.76%. Take `O=C1CCc2cc(C3CCc4ccc(F)cc4N3)ccc2N1` (stereo not shown) [Example 139, 7-fluoro-1,2,3,3′,4,4′-hexahydro-[2,6′-biquinolin]-2′(1′H)-one]: the “Ferroptosis inhibition rate (%)” value is recorded as 60.63%.

Take `OC[C@@H]1C[C@H](c2ccccc2)Nc2ccccc21` (relative stereo) [Example 89, ((2R*,4R*)-2-phenyl-1,2,3,4-tetrahydroquinolin-4-yl)methanol]: the “Ferroptosis inhibition rate (%)” value is recorded as 99.12%. For `Clc1ccc2c(c1)CC(c1ccccc1)CN2` (stereo not shown) [Example 163, 6-chloro-3-phenyl-1,2,3,4-tetrahydroquinoline], the “Ferroptosis inhibition rate (%)” value is 89.32%. Same read-out and setting: for `Fc1ccc2c(c1)CCC(c1cn[nH]c1)N2` (stereo not shown) [Example 98, 6-fluoro-2-(1H-pyrazol-4-yl)-1,2,3,4-tetrahydroquinoline] the value was 98.95%; for `CN1C(=O)CCc2cc(C3CCc4ccccc4N3)ccc21` (stereo not shown) [Example 24, 1′-methyl-1,2,3,3′,4,4′-hexahydro-[2,6′-biquinolin]-2′(1′H)-one], 59.67%; for `OCC1(c2ccccc2)CCc2ccccc2N1` (stereo not shown) [Example 92, (2-phenyl-1,2,3,4-tetrahydroquinolin-2-yl)methanol], 66.40%. The same measure, in the same setting: under `O=C1CCc2cc(C3CCc4ccccc4N3)ccc2N1` (stereo not shown) [Example 23, 1,2,3,3′,4,4′-hexahydro-[2,6′-biquinolin]-2′(1′H)-one] stands 68.45%. Take `Cc1ccc2c(c1)CCC(c1ccoc1)N2` (stereo not shown) [Example 102, 2-(furan-3-yl)-6-methyl-1,2,3,4-tetrahydroquinoline]: the “Ferroptosis inhibition rate (%)” value amounted to 77.96%.

The experiment is the same for the next values; noted with them: evaluation concentration 50 μmol/L, Erastin 3 μmol/L, 24 hours.
As to `CC(=O)Nc1ccc2c(c1)CCC(c1ccccc1)N2` (stereo not shown) [Example 73, N-(2-phenyl-1,2,3,4-tetrahydroquinolin-6-yl)acetamide], the “Ferroptosis inhibition rate (%)” value was 88.18%. Still for that read-out and setting: under `COc1ccc(C2CCc3ccc(OC)cc3N2)cc1` (stereo not shown) [Example 8, 7-methoxy-2-(4-methoxyphenyl)-1,2,3,4-tetrahydroquinoline] stands 100.6%; under `OCc1ccc2c(c1)NC(c1ccccc1)CC2` (stereo not shown) [Example 52, (2-phenyl-1,2,3,4-tetrahydroquinolin-7-yl)methanol], 74.96%; under `FC(F)(F)c1ccccc1C1CCc2ccccc2N1` (stereo not shown) [Example 10, 2-(2-(trifluoromethyl)phenyl)-1,2,3,4-tetrahydroquinoline], 103.9%. Same read-out and setting: under `FC(F)(F)c1cccc(C2CCc3ccccc3N2)c1` (stereo not shown) [Example 30, 2-(3-(trifluoromethyl)phenyl)-1,2,3,4-tetrahydroquinoline] stands 83.09%; under `CC(C)(C)NC(=O)Nc1ccc2c(c1)CCC(c1ccccc1)N2` (stereo not shown) [Example 76, 1-(tert-butyl)-3-(2-phenyl-1,2,3,4-tetrahydroquinolin-6-yl)urea], 85.43%; under `COc1cccc(C2CCc3ccccc3N2)c1` (stereo not shown) [Example 5, 2-(3-methoxyphenyl)-1,2,3,4-tetrahydroquinoline], 99.69%.

With `Cn1cc(C2CCc3ccccc3N2)cn1` (stereo not shown) [Example 14, 2-(1-methyl-1H-pyrazol-4-yl)-1,2,3,4-tetrahydroquinoline], the “Ferroptosis inhibition rate (%)” value amounted to 97.39%.
